{"source": "patent US20090017070A1", "about": "“In vitro model for hepatitis c virion production” (priority 2004, published 2009)", "key": {"HCV": {"tested_on": "HCV", "settings": "HCV-infected individuals treated with IFN; cited from earlier work"}, "[1]": {"tested_on": "HCV (JFH-1, genotype 2a) in Huh7 cells", "assay": "Interferon treatment of HCV.JFH1-Rbz transfected Huh7 cells, viral production by HCV core Ag level in the medium", "assay_type": "cell-based, Hepatitis C virus", "settings": "treated with interferon one day after transfection, HCV core Ag level in medium (FIG. 13B)", "from_the_text": "FIG. 13. Production of infectious HCV in culture. (A). Full-length genomic cDNAs of HCV genotypes 1a (H77), 2b (J6), and 2a (JFH-1) were cloned into the HCV-ribozyme construct as described in FIG. 7. The constructs and the pTHr plasmid containing the CG1b HCV genome as described above were transfected into Huh7 cells and tested for virus production in the medium by using HCV core Ag ELISA. (B) HCV.JFH1-Rbz construct was transfected to Huh7 cells and treated with interferon one day after transfection. Viral production was monitored by measurement of HCV core Ag level in the medium. (C) Long-term culture of HCV.JFH1.Rbz transfected Huh7 cells were maintained with serial passage for the indicated duration. Culture medium was harvested at indicated times for HCV core Ag level and HCV RNA titer. […] Multiple foci of cells with positive intracellular staining were detected.\nHCV RNA, Protein Quantitation, and RACE. HCV RNA level was quantitated by using the TaqMan real-time PCR method as previously described (Thomson, M. et al. 2001 Gastroenterology 121:1226-33). […] The core protein was quantitated by using the HCV core ELISA kits, which were provided by S. Yagi (Advanced Life Technology, Saitama, Japan) and used as previously described (Tanaka, E. et al. 2000 Hepatology 32: 388-93). […]"}}}
{"substance": "interferon-alfa", "values": [{"measurement": "Proportion of those treated showing a sustained response as evidenced by lack of circulating HCV RNA", "setting": "HCV", "result": "10-20%"}, {"measurement": "Sensitivity of viral replication to interferon-alfa treatment", "setting": "[1]", "result": "sensitive"}]}
